# According to patent US8633200B2, “Inhibitors of human immunodeficiency virus replication” (priority 2010, dated 2014):
# Counter-ions that a name gives are not always drawn.
# System: recombinant NL-Rluc virus (NL4-3 with Renilla Luciferase gene) in MT-2 cells
# Assay: Inhibition of HIV replication (NL-Rluc luciferase reporter virus, MT-2 cells)
# Assay type: cell-based, human immunodeficiency virus (HIV)
# Conditions: NL43, 120 h, read-out: Activity
row,SMILES,EC50 [µM]
1,"Cc1nc2cc(-c3cccc(C(=O)NCc4ccccc4)c3)nn2c(-c2cc(F)c3c(c2C)CCCO3)c1C(OC(C)(C)C)C(=O)O (stereo not shown) [Example 111, 2-(2-(3-(Benzylcarbamoyl)phenyl)-7-(8-fluoro-5-methylchroman-6-yl)-5-methylpyrazolo[1,5-a]pyrimidin-6-yl)-2-tert-butoxyacetic acid, TFA salt]",0.1 to 1
2,"Cc1nc2cc(-c3ccc(Oc4ccccc4)cc3)nn2c(-c2ccc3c(c2)CCCO3)c1C(OC(C)(C)C)C(=O)O (stereo not shown) [Example 112, 2-tert-Butoxy-2-(7-(chroman-6-yl)-5-methyl-2-(4-phenoxyphenyl)pyrazolo[1,5-a]pyrimidin-6-yl)acetic acid, TFA salt]",0.1 to 1
3,"Cc1nc2cc(-c3ccc4c(c3)CCCO4)nn2c(-c2ccc3c(c2)CCCO3)c1C(OC(C)(C)C)C(=O)O (stereo not shown) [Example 113, 2-tert-Butoxy-2-(2,7-di(chroman-6-yl)-5-methylpyrazolo[1,5-a]pyrimidin-6-yl)acetic acid, TFA salt]",0.1 to 1
4,"Cc1cccc(-c2cc3nc(C)c(C(OC(C)(C)C)C(=O)O)c(-c4ccc5c(c4)CCCO5)n3n2)c1 (stereo not shown) [Example 114, 2-tert-Butoxy-2-(7-(chroman-6-yl)-5-methyl-2-m-tolylpyrazolo[1,5-a]pyrimidin-6-yl)acetic acid, TFA salt]",0.1 to 1
5,"Cc1ccccc1-c1cccc(-c2cc3nc(C)c([C@H](OC(C)(C)C)C(=O)O)c(-c4cc(F)c5c(c4C)CCCO5)n3n2)c1 [Example 115, (2S)-2-(tert-Butoxy)-2-(7-(8-fluoro-5-methylchroman-6-yl)-5-methyl-2-(2′-methyl-[1,1′-biphenyl]-3-yl)pyrazolo[1,5-a]pyrimidin-6-yl)acetic acid]",< 0.1
6,"COc1ccccc1-c1cccc(-c2cc3nc(C)c([C@H](OC(C)(C)C)C(=O)O)c(-c4cc(F)c5c(c4C)CCCO5)n3n2)c1 [Example 116, (2S)-2-(tert-Butoxy)-2-(7-(8-fluoro-5-methylchroman-6-yl)-2-(2′-methoxy-[1,1′-biphenyl]-3-yl)-5-methylpyrazolo[1,5-a]pyrimidin-6-yl)acetic acid]",< 0.1
7,"COc1ccncc1-c1cccc(-c2cc3nc(C)c([C@H](OC(C)(C)C)C(=O)O)c(-c4cc(F)c5c(c4C)CCCO5)n3n2)c1 [Example 117, (2S)-2-(tert-Butoxy)-2-(7-(8-fluoro-5-methylchroman-6-yl)-2-(3-(4-methoxypyridin-3-yl)phenyl)-5-methylpyrazolo[1,5-a]pyrimidin-6-yl)acetic acid]",< 0.1
8,"Cc1nc2cc(-c3cccc(-c4ccccc4F)c3)nn2c(-c2cc(F)c3c(c2C)CCCO3)c1[C@H](OC(C)(C)C)C(=O)O [Example 118, (2S)-2-(tert-Butoxy)-2-(7-(8-fluoro-5-methylchroman-6-yl)-2-(2′-fluoro-[1,1′-biphenyl]-3-yl)-5-methylpyrazolo[1,5-a]pyrimidin-6-yl)acetic acid]",< 0.1
9,"Cc1nc2cc(-c3cccc(-c4cccnc4)c3)nn2c(-c2cc(F)c3c(c2C)CCCO3)c1[C@H](OC(C)(C)C)C(=O)O [Example 119, (2S)-2-(tert-Butoxy)-2-(7-(8-fluoro-5-methylchroman-6-yl)-5-methyl-2-(3-(pyridin-3-yl)phenyl)pyrazolo[1,5-a]pyrimidin-6-yl)acetic acid]",< 0.1
10,"Cc1nc2cc(-c3cccc(-c4ccc5c(cnn5C)c4)c3)nn2c(-c2cc(F)c3c(c2C)CCCO3)c1[C@H](OC(C)(C)C)C(=O)O [Example 120, (2S)-2-(tert-Butoxy)-2-(7-(8-fluoro-5-methylchroman-6-yl)-5-methyl-2-(3-(1-methyl-1H-indazol-5-yl)phenyl)pyrazolo[1,5-a]pyrimidin-6-yl)acetic acid]",< 0.1
11,"Cc1nc2cc(-c3cccc(-c4ccncc4)c3)nn2c(-c2cc(F)c3c(c2C)CCCO3)c1[C@H](OC(C)(C)C)C(=O)O [Example 121, (2S)-2-(tert-Butoxy)-2-(7-(8-fluoro-5-methylchroman-6-yl)-5-methyl-2-(3-(pyridin-4-yl)phenyl)pyrazolo[1,5-a]pyrimidin-6-yl)acetic acid, TFA salt]",< 0.1
12,"Cc1nc2cc(-c3cccc(-c4ccncc4)c3)nn2c(-c2cc(F)c3c(c2C)CCCO3)c1[C@@H](OC(C)(C)C)C(=O)O [Example 122, (2R)-2-(tert-Butoxy)-2-(7-(8-fluoro-5-methylchroman-6-yl)-5-methyl-2-(3-(pyridin-4-yl)phenyl)pyrazolo[1,5-a]pyrimidin-6-yl)acetic acid, TFA salt]",> 1
13,"Cc1nc2cc(-c3cccc(Cl)c3)nn2c(-c2cc(F)c3c(c2C)CCCO3)c1[C@H](OC(C)(C)C)C(=O)O [Example 123, (2S)-2-(tert-Butoxy)-2-(2-(3-chlorophenyl)-7-(8-fluoro-5-methylchroman-6-yl)-5-methylpyrazolo[1,5-a]pyrimidin-6-yl)acetic acid, TFA salt]",< 0.1
14,"Cc1nc2cc(-c3cccc(-c4ccc(F)cc4)c3)nn2c(-c2cc(F)c3c(c2C)CCCO3)c1[C@H](OC(C)(C)C)C(=O)O [Example 124, (2S)-2-(tert-Butoxy)-2-(7-(8-fluoro-5-methylchroman-6-yl)-2-(4′-fluoro-[1,1′-biphenyl]-3-yl)-5-methylpyrazolo[1,5-a]pyrimidin-6-yl)acetic acid, TFA salt]",< 0.1
15,"Cc1nc2cc(-c3cccc(-c4ccccc4)c3)nn2c(-c2cc(F)c3c(c2C)CCCO3)c1[C@H](OC(C)(C)C)C(=O)O [Example 125, (2S)-2-(2-([1,1′-Biphenyl]-3-yl)-7-(8-fluoro-5-methylchroman-6-yl)-5-methylpyrazolo[1,5-a]pyrimidin-6-yl)-2-(tert-butoxy)acetic acid]",< 0.1
16,"Cc1ccc(-c2cccc(-c3cc4nc(C)c([C@H](OC(C)(C)C)C(=O)O)c(-c5cc(F)c6c(c5C)CCCO6)n4n3)c2)cc1 [Example 126, (2S)-2-(tert-Butoxy)-2-(7-(8-fluoro-5-methylchroman-6-yl)-2-(4′-methyl-[1,1′-biphenyl]-3-yl)-5-methylpyrazolo[1,5-a]pyrimidin-6-yl)acetic acid, TFA salt]",< 0.1
17,"COc1ccc(-c2cccc(-c3cc4nc(C)c([C@H](OC(C)(C)C)C(=O)O)c(-c5cc(F)c6c(c5C)CCCO6)n4n3)c2)cc1 [Example 127, (2S)-2-(tert-Butoxy)-2-(7-(8-fluoro-5-methylchroman-6-yl)-2-(4′-methoxy-[1,1′-biphenyl]-3-yl)-5-methylpyrazolo[1,5-a]pyrimidin-6-yl)acetic acid, TFA salt]",< 0.1
18,"Cc1nc2cc(-c3cccc(-c4cccc(F)c4)c3)nn2c(-c2cc(F)c3c(c2C)CCCO3)c1[C@H](OC(C)(C)C)C(=O)O [Example 128, (2S)-2-(tert-Butoxy)-2-(7-(8-fluoro-5-methylchroman-6-yl)-2-(3′-fluoro-[1,1′-biphenyl]-3-yl)-5-methylpyrazolo[1,5-a]pyrimidin-6-yl)acetic acid, TFA salt]",< 0.1
19,"COc1cccc(-c2cccc(-c3cc4nc(C)c([C@H](OC(C)(C)C)C(=O)O)c(-c5cc(F)c6c(c5C)CCCO6)n4n3)c2)c1 [Example 129, (2S)-2-(tert-Butoxy)-2-(7-(8-fluoro-5-methylchroman-6-yl)-2-(3′-methoxy-[1,1′-biphenyl]-3-yl)-5-methylpyrazolo[1,5-a]pyrimidin-6-yl)acetic acid, TFA salt]",< 0.1
20,"Cc1cccc(-c2cccc(-c3cc4nc(C)c([C@H](OC(C)(C)C)C(=O)O)c(-c5cc(F)c6c(c5C)CCCO6)n4n3)c2)c1 [Example 130, (2S)-2-(tert-Butoxy)-2-(7-(8-fluoro-5-methylchroman-6-yl)-2-(3′-methyl-[1,1′-biphenyl]-3-yl)-5-methylpyrazolo[1,5-a]pyrimidin-6-yl)acetic acid, TFA salt]",< 0.1
21,"Cc1nc2cc(-c3cccc(-c4cnn(C)c4)c3)nn2c(-c2cc(F)c3c(c2C)CCCO3)c1[C@H](OC(C)(C)C)C(=O)O [Example 131, (2S)-2-(tert-Butoxy)-2-(7-(8-fluoro-5-methylchroman-6-yl)-5-methyl-2-(3-(1-methyl-1H-pyrazol-4-yl)phenyl)pyrazolo[1,5-a]pyrimidin-6-yl)acetic acid]",< 0.1
22,Cc1nc2c(-c3cccc(Cl)c3)cnn2c(-c2cc(F)c3c(c2C)CCCO3)c1C(OC(C)(C)C)C(=O)O (stereo not shown) [Example 132],0.1 to 1
23,"Cc1nc2c(-c3cccc(Cl)c3)cnn2c(-c2ccc3c(c2)CCCO3)c1C(OC(C)(C)C)C(=O)O (stereo not shown) [Example 133, 2-tert-Butoxy-2-(3-(3-chlorophenyl)-(7-chroman-6-yl)-5-methylpyrazolo[1,5-a]pyrimidin-6-yl)acetic acid]",0.1 to 1
24,"Cc1ccc(-c2c(C(OC(C)(C)C)C(=O)O)c(C)nc3c(-c4cccc(Cl)c4)cnn23)c(Cl)c1 (stereo not shown) [Example 134, 2-tert-Butoxy-2-(7-(2-chloro-4-methylphenyl)-3-(3-chlorophenyl)-5-methylpyrazolo[1,5-a]pyrimidin-6-yl)acetic acid]",> 1
25,"Cc1nc2c(-c3cccc(-c4ccncc4)c3)cnn2c(-c2cc(F)c3c(c2C)CCCO3)c1C(OC(C)(C)C)C(=O)O (stereo not shown) [Example 135, 2-(tert-Butoxy)-2-(7-(8-fluoro-5-methylchroman-6-yl)-5-methyl-3-(3-(pyridin-4-yl)phenyl)pyrazolo[1,5-a]pyrimidin-6-yl)acetic acid]",0.1 to 1
26,"Cc1nc2c(-c3ccc(F)cc3)c(-c3ccccc3)nn2c(-c2cc(F)c3c(c2C)CCCO3)c1C(OC(C)(C)C)C(=O)O (stereo not shown) [Example 136, 2-(tert-Butoxy)-2-(7-(8-fluoro-5-methylchroman-6-yl)-3-(4-fluorophenyl)-5-methyl-2-phenylpyrazolo[1,5-a]pyrimidin-6-yl)acetic acid]",> 1
27,"Cc1nc2c(-c3cc(F)c4c(c3C)CCCO4)c(-c3ccccc3)nn2c(-c2cc(F)c3c(c2C)CCCO3)c1C(OC(C)(C)C)C(=O)O (stereo not shown) [Example 137, 2-(3,7-Bis(8-fluoro-5-methylchroman-6-yl)-5-methyl-2-phenylpyrazolo[1,5-a]pyrimidin-6-yl)-2-(tert-butoxy)acetic acid]",> 1

# Same assay, conditions: NL43, 120 h, read-out: EC50 μM
row,SMILES,EC50 [µM]
1,"Cc1nc2cc(-c3ccc4c(c3)CCCO4)nn2c(-c2ccc3c(c2)CCCO3)c1C(OC(C)(C)C)C(=O)O (stereo not shown) [Example 113, 2-tert-Butoxy-2-(2,7-di(chroman-6-yl)-5-methylpyrazolo[1,5-a]pyrimidin-6-yl)acetic acid, TFA salt]",0.11
2,"Cc1ccccc1-c1cccc(-c2cc3nc(C)c([C@H](OC(C)(C)C)C(=O)O)c(-c4cc(F)c5c(c4C)CCCO5)n3n2)c1 [Example 115, (2S)-2-(tert-Butoxy)-2-(7-(8-fluoro-5-methylchroman-6-yl)-5-methyl-2-(2′-methyl-[1,1′-biphenyl]-3-yl)pyrazolo[1,5-a]pyrimidin-6-yl)acetic acid]",0.02
3,"Cc1nc2cc(-c3cccc(-c4ccc5c(cnn5C)c4)c3)nn2c(-c2cc(F)c3c(c2C)CCCO3)c1[C@H](OC(C)(C)C)C(=O)O [Example 120, (2S)-2-(tert-Butoxy)-2-(7-(8-fluoro-5-methylchroman-6-yl)-5-methyl-2-(3-(1-methyl-1H-indazol-5-yl)phenyl)pyrazolo[1,5-a]pyrimidin-6-yl)acetic acid]",0.002
4,"Cc1nc2c(-c3ccc(F)cc3)c(-c3ccccc3)nn2c(-c2cc(F)c3c(c2C)CCCO3)c1C(OC(C)(C)C)C(=O)O (stereo not shown) [Example 136, 2-(tert-Butoxy)-2-(7-(8-fluoro-5-methylchroman-6-yl)-3-(4-fluorophenyl)-5-methyl-2-phenylpyrazolo[1,5-a]pyrimidin-6-yl)acetic acid]",1.6
